Reference: patent US20140213558A1, “TREATMENT OF INFLAMMATORY DISEASE OR DISORDER AND COMPOSITIONS THEREFOR” (CREDE OILS (PTY) LTD, priority 2011, published 2014)

Test: Comparison of pure TQ with Nigella sativa oil
Conditions: administration of pure TQ
Method: Nevertheless, some embodiments of the invention may include N. sativa oil and/or its essential oil, either as the sole or primary active or in combination with EPA and/or GLA. […] Thus, N. sativa essential oil may provide a therapeutic or prophylactic effect in some embodiments of the invention, particularly in those embodiments in which one or more other actives (e.g., EPA, GLA, etc.) are also administered. Similarly, embodiments of the invention may include derivatives and/or precursors of TQ, including polymers of TQ.

CC1=CC(=O)C(C(C)C)=CC1=O [TQ, 2-isopropyl-5-methylbenzo-1,4-quinone]
effectiveness relative to Nigella sativa oil: more effective than the administration of Nigella sativa oil
